In US10800784B2, “Nitrogen-containing heterocyclic amide compound and pharmaceutical use thereof” (Japan Tobacco Inc., priority 2018, dated 2020):

Assays:
[1] = molecular target: human PDHK1 (hPDHK1) (Homo sapiens (Human), UniProt Q15118); assay: Inhibitory action of PDHK1 activity in vitro (residual PDH activity after PDHK reaction); type: biochemical; details: PDH/hPDHK1 complex solution, PDHK reaction at room temperature for 45 min, NADH absorbance at 340 nm; read-out: hPDK1 IC50
Method: (§1) The inhibitory action of PDHK activity was assessed indirectly by measuring the residual PDH activity after PDHK reaction in the presence of a test compound.
(Inhibitory Action of PDHK1 Activity)
In the case of human PDHK1 (hPDHK1, NCBI Reference Database Accession number NM_002610.3), a 1.3 kbp fragment encoding this protein was isolated from human liver cDNA by polymerase chain reaction (PCR). Modified hPDHK1 cDNA wherein FLAG-Tag sequence was added to the N terminus was prepared by PCR and ligated to the NdeI/EcoRI site of pET-17b vector (Merck MGaA, model number 69663-3). The recombinant construct was transformed into Escherichia coli DH5a (TOYOBO, model number DNA-903). The recombinant clones were identified, and plasmid DNA was isolated and subjected to the DNA sequence analysis. One clone which had the expected nucleic acid sequence was selected for expression work.
For expression of hPDHK1 activity, Escherichia coli strain BL21(DE3) cells (Merck KGaA, model number 69450-4) were transformed with the pET17b vector containing modified hPDHK1 cDNA. The Escherichia coli were grown to an optical density 0.6 ([…]) at 30° C. Protein expression was induced by the addition of 500 μmol/L isopropyl-β-thiogalactopyranoside. The Escherichia coli were cultured at 20° C. for 17-18 hr and harvested by centrifugation.
The harvested Escherichia coli was resuspended in a suspension buffer (20 mmol/L N-(2-hydroxyethyl)piperazine-N′-2-ethanesulfonic acid-sodium hydroxide (HEPES-NaOH), 500 mmol/L sodium chloride, 1% ethylene glycol, and 0.1% polyoxyethylene-polyoxypropylene block copolymer (Pluronic F-68), complete, EDTA-free (pH 8.0)) and disrupted by a microfluidizer M-110H (MIZUHO INDUSTRIAL CO., LTD.) or ultrasonication. The precipitate was removed by centrifugation and the supernatant was added to DDDDK-tagged Protein PURIFICATION GEL (MBL, model number 3329). DDDDK-tagged Protein PURIFICATION GEL was washed with a washing buffer (20 mmol/L HEPES-NaOH, 500 mmol/L sodium chloride, 1% ethylene glycol, 0.1% pluronic F-68 (pH 8.0)) and the bound protein was eluted with elution buffer 1 (20 mmol/L HEPES-NaOH, 100 μg/mL peptide (amino acid sequence DYKDDDDK) (SEQ ID NO: 1), 500 mmol/L sodium chloride, 1% ethylene glycol, 0.1% pluronic F-68 (pH 8.0)).
The eluted fractions containing FLAG-Tagged protein were pooled, concentrated by an ultrafiltration method, added to a gel filtration column (HiLoad 26/60 Superdex 200 (GE Healthcare, model number 17-1070-01)), and eluted with elution buffer 2 (20 mmol/L HEPES-NaOH, 150 mmol/L sodium chloride, 0.5 mmol/L ethylenediaminetetraacetic acid (EDTA), 1% ethylene glycol, 0.1% pluronic F-68 (pH 8.0)). The eluted fractions were pooled and preserved at −80° C.
(§2) 0.025 U/mL PDH (porcine heart PDH complex, Sigma P7032) and 0.5 μg/mL hPDHK1 were mixed in an assay buffer (50 mmol/L 3-morpholinopropanesulfonic acid (pH 7.0), 20 mmol/L dipotassium hydrogen phosphate, 60 mmol/L potassium chloride, 2 mmol/L magnesium chloride, 0.4 mmol/L EDTA, 0.2% poloxamer, 2 mmol/L dithiothreitol), and the mixture was incubated at 4° C. overnight to obtain a PDH/hPDHK1 complex solution. In the assay buffer, 0.025 U/mL PDH was mixed and incubated at 4° C. overnight to prepare a PDH solution.
The test compounds were diluted with dimethyl sulfoxide (DMSO). To measure an inhibitory action of the test compound on the PDHK activity in the PDH/hPDHK1 complex solution, PDH/hPDHK1 complex solution (20 μL), test compound (1.5 μL) and 0.353 μmol/L ATP (diluted with assay buffer) (8.5 μL) were added to a 384 well microplate (Greiner Bio-One 781801) and PDHK reaction was performed at room temperature for 45 min (test compound well). DMSO (1.5 μL) was added to control wells instead of test compound. In addition, DMSO (1.5 μL) was added to blank wells instead of the test compound, and PDH solution was added instead of the PDH/hPDHK1 complex solution. […]

[2] = molecular target: human PDHK2 (hPDHK2) (Homo sapiens (Human), UniProt Q15119); assay: Inhibitory action of PDHK2 activity in vitro (residual PDH activity after PDHK reaction); type: biochemical; details: for IC50: PDH/hPDHK2 complex solution, PDHK reaction at room temperature for 45 min, NADH absorbance at 340 nm, read-out: kPDK2 IC50
Method: as §1
(Inhibitory Action of PDHK2 Activity)
In the case of human PDHK2 (hPDHK2, NCBI Reference Database Accession number NM_002611.4), modified hPDHK2 cDNA wherein FLAG-Tag sequence was added to the N terminus of hPDHK2 cDNA clone (pReceiver-M01/PDK2-GeneCopoeia) as the base was prepared by PCR and ligated to the NdeI/EcoRI site of pET-17b vector. The recombinant construct was transformed into Escherichia coli DH5a. The recombinant clones were identified, and plasmid DNA was isolated and subjected to the DNA sequence analysis. One clone which had the expected nucleic acid sequence was selected for expression work.
For expression of hPDHK2 activity, Escherichia coli strain BL21(DE3) cells were transformed with the pET17b vector containing modified hPDHK2 cDNA. The Escherichia coli were grown to an optical density 0.6 ([…]) at 30° C. Protein expression was induced by the addition of 500 μmol/L isopropyl-β-thiogalactopyranoside. The Escherichia coli were cultured at 20° C. for 17-18 hr and harvested by centrifugation. The harvested Escherichia coli was resuspended in a suspension buffer (20 mmol/L HEPES-NaOH, 500 mmol/L sodium chloride, 1% ethylene glycol, 0.1% pluronic F-68 (pH 8.0), cOmplete, EDTA-free (pH 8.0)), and disrupted by a microfluidizer. The precipitate was removed by centrifugation and the supernatant was added to DDDDK-tagged Protein PURIFICATION GEL. DDDDK-tagged Protein PURIFICATION GEL was washed with a washing buffer (20 mmol/L HEPES-NaOH, 500 mmol/L sodium chloride, 1% ethylene glycol, 0.1% pluronic F-68 (pH 8.0)) and the bound protein was eluted with elution buffer 1 (20 mmol/L HEPES-NaOH, 100 μg/mL peptide (amino acid sequence DYKDDDDK) (SEQ ID NO: 1), 500 mmol/L sodium chloride, 1% ethylene glycol, 0.1% pluronic F-68 (pH 8.0)). The eluted fractions containing FLAG-Tagged protein were pooled, concentrated by an ultrafiltration method, added to a gel filtration column (HiLoad 26/60 Superdex 200), and eluted with elution buffer 2 (20 mmol/L HEPES-NaOH, 150 mmol/L sodium chloride, 0.5 mmol/L ethylenediaminetetraacetic acid (EDTA), 1% ethylene glycol, 0.1% pluronic F-68 (pH 8.0)). The eluted fractions were pooled and preserved at −80° C.
as §2, with “PDH” for “PDH (porcine heart PDH complex, Sigma P7032)”, “hPDHK2” for “hPDHK1”, “PDH/hPDHK2” for “PDH/hPDHK1”
The test compounds were diluted with DMSO. To measure an inhibitory action of the test compound on the PDHK activity in the PDH/hPDHK2 complex solution, PDH/hPDHK2 complex solution (20 μL), test compound (1.5 μL) and 1.06 μmol/L ATP (diluted with assay buffer) (8.5 μL) were added to a 384 well microplate and PDHK reaction was performed at room temperature for 45 min (test compound well). DMSO (1.5 μL) was added to control wells instead of test compound. In addition, DMSO (1.5 μL) was added to blank wells instead of the test compound, and PDH solution was added instead of the PDH/hPDHK2 complex solution. To measure an inhibitory action of the test compound on the PDHK activity inherent in the PDH solution, a test compound was added and the PDH solution instead of the PDH/hPDHK2 complex solution was added to a blank+test compound well.
Then, 10 μL of substrates (5 mmol/L sodium pyruvate, 5 mmol/L Coenzyme A, 12 mmol/L NAD, 5 mmol/L thiamine pyrophosphate, diluted with assay buffer) were added. The mixture was incubated at room temperature for 90 min, and the residual PDH activity was measured. […]

human PDHK1 (hPDHK1), sequence (Q15118 29-436): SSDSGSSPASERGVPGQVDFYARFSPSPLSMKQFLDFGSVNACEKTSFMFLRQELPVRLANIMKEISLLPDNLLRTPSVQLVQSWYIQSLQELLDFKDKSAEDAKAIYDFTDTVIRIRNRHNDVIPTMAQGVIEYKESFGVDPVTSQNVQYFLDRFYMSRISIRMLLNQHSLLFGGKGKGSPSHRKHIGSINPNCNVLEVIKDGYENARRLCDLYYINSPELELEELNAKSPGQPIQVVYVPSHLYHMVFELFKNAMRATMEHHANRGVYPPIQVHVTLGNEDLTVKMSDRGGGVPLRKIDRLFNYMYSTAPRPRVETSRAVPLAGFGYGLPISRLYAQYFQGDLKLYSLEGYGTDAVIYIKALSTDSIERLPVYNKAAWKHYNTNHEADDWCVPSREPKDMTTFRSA

| SMILES | IC50 [1] | IC50 [2] | hPDHK2 inhibitory rate at the lowest concentration of the test compound ([2]; lowest concentration of the test compound in the assay (<3 nmol/L), shown when IC50 value could not be calculated) |
| --- | --- | --- | --- |
| C[C@H]1CN(C(=O)c2cc(C3CC3)on2)Cc2cnc([C@@](C)(O)C(F)(F)F)n21 [Example 21] | 13 nM | 12 nM |  |
| C[C@H]1CN(C(=O)c2ccc(=O)n(C3CC3)c2)Cc2cnc([C@@](C)(O)C(F)(F)F)n21 [Example 24] | 42 nM | 36 nM |  |
| C[C@H]1CN(C(=O)c2cc(-c3ccc(F)cc3)on2)Cc2cnc([C@@](C)(O)C(F)(F)F)n21 [Example 26] | 9 nM | 14 nM |  |
| C[C@H]1CN(C(=O)c2ccc(F)cc2C2CC2)Cc2cnc([C@@](C)(O)C(F)(F)F)n21 [Example 27] | 9 nM | 8 nM |  |
| C[C@H]1CN(C(=O)c2ccc(C#N)c(C3CC3)c2)Cc2cnc([C@@](C)(O)C(F)(F)F)n21 [Example 28] | 12 nM | 10 nM |  |
| C[C@H]1CN(C(=O)c2ccc(C3CC3)nc2)Cc2cnc([C@@](C)(O)C(F)(F)F)n21 [Example 30] | 20 nM | 13 nM |  |
| C[C@H]1CN(C(=O)c2cc(-c3ccc(C#N)cc3)nn2C)Cc2cnc([C@@](C)(O)C(F)(F)F)n21 [Example 31] | 9 nM | 11 nM |  |
| C[C@H]1CN(C(=O)c2ccnn2C2CC2)Cc2cnc([C@@](C)(O)C(F)(F)F)n21 [Example 32] | 13 nM | 10 nM |  |
| C[C@H]1CN(C(=O)c2cc(-c3ccc(C#N)cc3)n(C)n2)Cc2cnc([C@@](C)(O)C(F)(F)F)n21 [Example 33] | 12 nM | 16 nM |  |
| C[C@H]1CN(C(=O)c2cc(-c3ccc(F)cc3)n[nH]2)Cc2cnc([C@@](C)(O)C(F)(F)F)n21 [Example 34] | 10 nM | 13 nM |  |

The next molecules have a lower IC50 [1] than those just listed; values first:

| IC50 [1] | IC50 [2] | hPDHK2 inhibitory rate at the lowest concentration of the test compound ([2]; lowest concentration of the test compound in the assay (<3 nmol/L), shown when IC50 value could not be calculated) | SMILES |
| --- | --- | --- | --- |
| 6 nM | 7 nM |  | C[C@H]1CN(C(=O)c2cc(-c3ccc(F)cc3)nn2C)Cc2cnc([C@@](C)(O)C(F)(F)F)n21 [Example 16, (3-(4-fluorophenyl)-1-methyl-1H-pyrazol-5-yl) ((S)-5-methyl-3-((R)-1,1,1-trifluoro-2-hydroxypropan-2-yl)-5,6-dihydroimidazo[1,5-a]pyrazin-7(8H)-yl)methanone] |
| 8 nM | 7 nM |  | C[C@H]1CN(C(=O)c2cnn(-c3ccc(F)cc3)c2C(F)(F)F)Cc2cnc([C@@](C)(O)C(F)(F)F)n21 [Example 17] |
| 7 nM | 7 nM |  | C[C@H]1CN(C(=O)c2ccc(C3CC3)cc2)Cc2cnc([C@@](C)(O)C(F)(F)F)n21 [Example 18] |
| 5 nM | < 3 nM | 67% | C[C@H]1CN(C(=O)c2c(C#N)c(C3CC3)nn2C)Cc2cnc([C@@](C)(O)C(F)(F)F)n21 [Example 19] |
| 8 nM | 12 nM |  | C[C@H]1CN(C(=O)c2cc(C3CCOCC3)nn2C)Cc2cnc([C@@](C)(O)C(F)(F)F)n21 [Example 20] |
| 6 nM | 8 nM |  | C[C@H]1CN(C(=O)c2c(Cl)c(C3CC3)nn2C)Cc2cnc([C@@](C)(O)C(F)(F)F)n21 [Example 22] |
| 6 nM | 12 nM |  | C[C@H]1CN(C(=O)c2ccc(F)c(C3CC3)n2)Cc2cnc([C@@](C)(O)C(F)(F)F)n21 [Example 23] |
| 7 nM | 14 nM |  | COc1ccc(-c2cc(C(=O)N3Cc4cnc([C@@](C)(O)C(F)(F)F)n4[C@@H](C)C3)no2)cc1 [Example 25] |
| 7 nM | 7 nM |  | C[C@H]1CN(C(=O)c2cc(C3CC3)nn2C2CC2)Cc2cnc([C@@](C)(O)C(F)(F)F)n21 [Example 29] |
| 3 nM | 4 nM |  | C[C@H]1CN(C(=O)c2cc(-c3ccc(C#N)cc3)nn2C2CC2)Cc2cnc([C@@](C)(O)C(F)(F)F)n21 [Example 35] |
| 4 nM | 5 nM |  | C[C@H]1CN(C(=O)c2cc(C3CC3)nn2CC(F)(F)F)Cc2cnc([C@@](C)(O)C(F)(F)F)n21 [Example 36] |
| 3 nM | 8 nM |  | C[C@H]1CN(C(=O)c2cc(C3CC3)n(CC(F)(F)F)n2)Cc2cnc([C@@](C)(O)C(F)(F)F)n21 [Example 37] |
